The values below come from patent US8877716B2, “Peptide derivatives, preparation and uses thereof” (Vect-Horus, priority 2010, dated 2014).

One data set in a line: in vitro. To be noted: blood.
For data set [1] the following is noted: Demeule et al., 2008; cited from earlier work.

Take `CSCC[C@@H]1NC(=O)[C@H](N)CSSC[C@@H](C(=O)O)NC(=O)CNC(=O)[C@H](CCCNC(=N)N)NC(=O)[C@H](CC(C)C)NC(=O)[C@H](CCCNC(=N)N)NC(=O)[C@@H]2CCCN2C1=O` [SEQ ID NO: 17]: the half-life (as a rule, the time in which the quantity being followed falls by half) in “in vitro” was 3 h.

In the case of transferrin [Tf], the “Kin (cerebral transfer coefficient)” value in data set [1] was 0.0003 mL/s/g.
